Data published in patent publication US12691070B2, “Cationic lipids and preparation method thereof” (RiboX Therapeutics HK Limited, priority 2023, dated 2026).

How the values were obtained:
[1] = LNP size and polydispersity index (PDI) by dynamic light scattering; format: physicochemical; details: for Size: in nm (unit assumed)
How it was run: (§1)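 Ribogreen fluorescence with and without Triton X-100 gave encapsulation as 100% − (intact/lysed) signal; DLS size, PDI and zeta potential measured on a Zetasizer. Particles: 50:10:38.5:1.5 lipid mix, luciferase circRNA or mRNA, lipid:nucleotide 15 or 6, microfluidic assembly at pH 4.5, PBS-dialyzed.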

[2] = RNA encapsulation efficacy by Quant-IT Ribogreen kit; format: physicochemical; details: for Encapsulation Efficiency %: LNP with cirRNA (SEQ ID NO: 1); for Encapsulation Efficiency: LNP with mRNA (SEQ ID NO: 2)
How it was run: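 LNPs of ionizable lipid/DSPC/cholesterol/DMG-PEG 2000 (50:10:38.5:1.5) made by microfluidic mixing of luciferase circRNA or mRNA in pH 4.5 acetate with lipids in ethanol (3:1, 12 ml/min), ionizable lipid:nucleotide 15 or 6, then dialyzed against PBS. Size, PDI (DLS) and zeta potential on Zetasizer; encapsulation by Ribogreen ± Triton X-100.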

Hep G2 cells [3] = assay: In vitro toxicity (CellTiter-Glo cell viability), Hep G2; format: cell-based;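 note: percent of untreated cells luminescence signal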
How it was run: (§2)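 RNA-LNPs 1 μg/mL; 72 h post-transfection; CellTiter-Glo luminescence read-out; % viability calculated from signal.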

[4] = tested on: Alanine Aminotransferase (ALT); assay: Liver enzyme elevation in serum, ALT; format: in vivo; details: cirRNA (SEQ ID NO: 1) LNPs, BALB/C mice, intravenous 0.5 MPK
Protocol: (§3) 6-8 week old, female BALB/C mice were injected with 0.5 mg*kg-1 of RNA LNPs by intravenous injection. At 2 and 24 hours post injection, animals were bled and sera concentrations of Alanine Aminotransferase (ALT) and Aspartate Aminotransferase (AST) were determined by a blood chemistry analyzer.

BALB/C mice [5] = assay: Local tolerance determination by footpad injection; format: in vivo; details: cirRNA (SEQ ID NO: 1) LNP, 0.175 mg*kg-1 subcutaneous into the footpad, 24 hours post minus prior
Protocol: 6-8 week old, female BALB/C mice were injected with 0.175 mg*kg-1 RNA LNPs by subcutaneous injection into the footpad. Prior to, and 24 hours post injections, injected footpad thickness was determined by a caliper.

BALB/C mice [6] = assay: In vivo expression, whole-body luminescence (IVIS)
Protocol: 6-8 week old, female BALB/C mice were injected with 0.05 mg*kg-1 of RNA-LNPs encoding for firefly-luciferase by intravenous injection. At 6 hours post injection, animals were intraperitoneally injected with 15 mg/ml of Luciferin substrate and whole-body luminescence was determined by a bioluminescent in vivo imaging system (IVIS).

RAW 264.7 cells [7] = assay: In vitro toxicity (CellTiter-Glo cell viability), RAW 264.7; format: cell-based;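 note: percent of untreated cells luminescence signal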
How it was run: as §2

Hep G2 cells [8] = assay: In vitro expression of firefly-luciferase, Hep G2; format: cell-based
How it was run: (§4)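 Cells were transfected with firefly-luciferase-encoding RNA-LNPs at 100 ng/mL. After 72 hours they were washed and lysed, and luciferase activity in the lysates was read by luminometry.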

[9] = LNP zeta potential (Zetasizer); format: physicochemical
How it was run: as §1

MCP-I = MCP-I cytokine elevation in serum; format: in vivo; details: cirRNA (SEQ ID NO: 1) LNPs, mice
Protocol: 6-8 week old, female BALB/C mice were injected with 0.5 mg*kg-1 of RNA LNPs by intravenous injection. At 2 and 24 hours post injection, animals were bled and sera concentrations of MCP-I were determined by an immunoassay (Luminex).

[10] = tested on: Aspartate Aminotransferase (AST); assay: Liver enzyme elevation in serum, AST; format: in vivo; details: cirRNA (SEQ ID NO: 1) LNPs, BALB/C mice, intravenous 0.5 MPK
Protocol: as §3

RAW 264.7 cells [11] = assay: In vitro expression of firefly-luciferase, RAW 264.7; format: cell-based
How it was run: as §4

[12] = cirRNA (SEQ ID NO: 1) LNPs, Hep G2 cells
[13] = mRNA (SEQ ID NO: 2) LNP, 1 μg/mL, 72 hours post transfection
[14] = cirRNA (SEQ ID NO: 1) LNPs, BALB/C mice
[15] = mRNA (SEQ ID NO: 2) LNP, 0.05 mg*kg-1 intravenous, 6 hours post injection
[16] = cirRNA (SEQ ID NO: 1) LNPs, RAW 264.7 cells
[17] = cirRNA (SEQ ID NO: 1) LNPs, firefly-luciferase luminescence, Hep G2 cells
[18] = mRNA (SEQ ID NO: 2) LNP, 100 ng/mL, 72 hours post transfection, luciferase activity
[19] = cirRNA (SEQ ID NO: 1) LNPs, firefly-luciferase luminescence, RAW 264.7 cells

Structure (SMILES)	PDI ([1]; LNP with cirRNA (SEQ ID NO: 1))	Size ([1]; LNP with cirRNA (SEQ ID NO: 1))	PDI ([1]; LNP with mRNA (SEQ ID NO: 2))	Size ([1]; LNP with mRNA (SEQ ID NO: 2))	Encapsulation Efficiency % [2] [%]	Encapsulation Efficiency [2] [%]	In vitro Viability HepG2 (Hep G2 cells [3]; [12]) [%]	In vitro Viability HepG2 (Hep G2 cells [3]; [13]) [%]	ALT in Sera (IU/L) 2 hours After 0.5 MPK Injection [4] [IU/L]	ALT in Sera (IU/L) 24 hours After 0.5 MPK Injection [4] [IU/L]	Footpad Thickness (24 h−0 h, mm) (BALB/C mice [5]) [mm]	In vivo Expression (Whole Body) (BALB/C mice [6]; [14])	In vivo Expression (Whole Body) (BALB/C mice [6]; [15])	In vitro Viability RAW (RAW 264.7 cells [7]; [16]) [%]	In vitro Viability RAW (RAW 264.7 cells [7]; [13]) [%]	In vitro Expression HepG2 (Hep G2 cells [8]; [17])	In vitro Expression HepG2 (Hep G2 cells [8]; [18])	Zeta (mV) ([9]; LNP with cirRNA (SEQ ID NO: 1))	Zeta (mV) ([9]; LNP with mRNA (SEQ ID NO: 2))	MCP-I in Sera 2 hours After 0.5 MPK Injection (MCP-I) [pg/mL]	also measured
CCCCC/C=C\C/C=C\CCCCCCCCN(CCCCCCCC(=O)OC(CCCCCCCC)CCCCCCCC)CCOC(=O)NCCN1CCCC1 [Lipid 128, heptadecan-9-yl 8-(((9Z,12Z)-octadeca-9,12-dien-1-yl)(2-(((2-(pyrrolidin-1-yl)ethyl)carbamoyl)oxy)ethyl)amino)octanoate]	0.1	93.54	0.1021	75.38	94	91	103	94	58.17	56.00	0.98	5.46E+08	6.98E+08	59	92	4.01E+06	2.16E+07	0.282	6.141	6355.24	MCP-I in Sera 24 hours After 0.5 MPK Injection (MCP-I): 318.11 pg/mL; AST in Sera (IU/L) 2 hours After 0.5 MPK Injection [10]: 195.53 IU/L; AST in Sera (IU/L) 24 hours After 0.5 MPK Injection [10]: 131.30 IU/L; In vitro Expression RAW (RAW 264.7 cells [11]; [19]): 5.15E+06; In vitro Expression RAW (RAW 264.7 cells [11]; [18]): 1.72E+06
CCCCCCCCCCC(CCCCCCCC)COC(=O)CCCCCN(CCCCCCCCOC(=O)C(CCCCCC)CCCCCCCC)CCOC(=O)NCCN(C)C (stereo not drawn) [Lipid 51, 2-octyldodecyl 10-(8-((2-hexyldecanoyl)oxy)octyl)-2-methyl-6-oxo-7-oxa-2,5,10-triazahexadecan-16-oate]	0.04	89.19	0.1368	79.21	97	89	88	83	71.07	45.50	1.11	6.85E+08	1.78E+09	104	80	9.85E+05	4.66E+07	−0.71	3.197	3296.20	MCP-I in Sera 24 hours After 0.5 MPK Injection (MCP-I): 562.40 pg/mL; AST in Sera (IU/L) 2 hours After 0.5 MPK Injection [10]: 193.77 IU/L; AST in Sera (IU/L) 24 hours After 0.5 MPK Injection [10]: 94.73 IU/L; In vitro Expression RAW (RAW 264.7 cells [11]; [19]): 8.74E+06; In vitro Expression RAW (RAW 264.7 cells [11]; [18]): 2.63E+06
CCCCCCCCCCC(CCCCCCCC)COC(=O)CCCCCN(CCCCCC(=O)OCC(CCCCCCCC)CCCCCCCCCC)CCCOC(=O)NCCN1CCCC1 (stereo not drawn) [Lipid 369]	0.1084	93.14	0.1166	120.9	97	92.99	78	94	158.00	121.00	0.57	1.30E+07	6.54E+08	61	90	1.04E+06	7.28E+07	4.427	10	6463.00	MCP-I in Sera 24 hours After 0.5 MPK Injection (MCP-I): 1338.00 pg/mL; AST in Sera (IU/L) 2 hours After 0.5 MPK Injection [10]: 364.00 IU/L; AST in Sera (IU/L) 24 hours After 0.5 MPK Injection [10]: 290.00 IU/L; In vitro Expression RAW (RAW 264.7 cells [11]; [19]): 1.84E+05; In vitro Expression RAW (RAW 264.7 cells [11]; [18]): 2.18E+07
CCCCC/C=C\C/C=C\CCCCCCCCN(CCCCCCCC(=O)OC(CCCCCCCC)CCCCCCCC)CCCOC(=O)NCCCn1ccnc1 [Lipid 276]	0.1464	64.42	0.07602	88.07	96	94.50	95	115	247.67	52.00	0.51	1.88E+08	1.26E+07	117	83	9.80E+05	3.01E+05	−0.02248	0.8258	1659.21	MCP-I in Sera 24 hours After 0.5 MPK Injection (MCP-I): 120.48 pg/mL; AST in Sera (IU/L) 2 hours After 0.5 MPK Injection [10]: 247.33 IU/L; AST in Sera (IU/L) 24 hours After 0.5 MPK Injection [10]: 89.67 IU/L; In vitro Expression RAW (RAW 264.7 cells [11]; [19]): 1.07E+06; In vitro Expression RAW (RAW 264.7 cells [11]; [18]): 8.16E+05
CCCCCCCCCCC(CCCCCCCC)COC(=O)CCCCCN(CCCCCC(=O)OCC(CCCCCCCC)CCCCCCCCCC)CCOC(=O)NCCN1CCCCC1 (stereo not drawn) [Lipid 169]	0.003	73.59	0.07881	88.09	95	87.64	88	93	65.40	57.80	0.84	4.92E+08	1.46E+09	82	83	1.94E+06	1.59E+07	−2.92	−0.8755	509.14	MCP-I in Sera 24 hours After 0.5 MPK Injection (MCP-I): 80.18 pg/mL; AST in Sera (IU/L) 2 hours After 0.5 MPK Injection [10]: 129.50 IU/L; AST in Sera (IU/L) 24 hours After 0.5 MPK Injection [10]: 87.00 IU/L; In vitro Expression RAW (RAW 264.7 cells [11]; [19]): 5.36E+05; In vitro Expression RAW (RAW 264.7 cells [11]; [18]): 2.87E+06
CCCCCCCCCCC(CCCCCCCC)COC(=O)CCCCCN(CCCCCC(=O)OCC(CCCCCCCC)CCCCCCCCCC)CCCOC(=O)NCCN1CCCCC1 (stereo not drawn) [Lipid 370]	0.08162	90.63	0.1494	112.8	97	93.87	93	94	102.00	123.00	0.50	3.68E+08	3.37E+08	96	107	2.65E+07	6.38E+07	0.1617	0.9875	4872.33	MCP-I in Sera 24 hours After 0.5 MPK Injection (MCP-I): 1652.33 pg/mL; AST in Sera (IU/L) 2 hours After 0.5 MPK Injection [10]: 276.33 IU/L; AST in Sera (IU/L) 24 hours After 0.5 MPK Injection [10]: 413.33 IU/L; In vitro Expression RAW (RAW 264.7 cells [11]; [19]): 1.98E+06; In vitro Expression RAW (RAW 264.7 cells [11]; [18]): 3.26E+07
